Assay results from the OligoGym collection.
Where “and” joins values, the source holds several entries; their conditions need not be identical. Equal entries are not always repeated. After the bases stand the sugars from the 5' end (letter, count) and the backbone: PS all phosphorothioate, else s phosphorothioate and o phosphodiester by linkage. Methylation of C is not given here. k = constrained ethyl (cEt); d = 2'-deoxy (DNA)

Target: MALAT1
Settings: ASO, A431, 0.005 µM

Sequence	target mRNA inhibition
CAGTCCTTTTAGTAGC (sugars k3 d10 k3, PS)	57%
CATAGTTCAACCCACC (sugars k3 d10 k3, PS)	35%
CATATTTAACTTCCCC (sugars k3 d10 k3, PS)	25%
CATCAAGGATGTATAT (sugars k3 d10 k3, PS)	-4%
CATCAGAAGAAATCCC (sugars k3 d10 k3, PS)	17%
CATGGAAAGCGAGTTC (sugars k3 d10 k3, PS)	20%
CATTAAAGAGTGTTCG (sugars k3 d10 k3, PS)	34%
CATTCTAATAGCAGCG (sugars k3 d10 k3, PS)	51% and 68%
CATTTCTCCAATGGAC (sugars k3 d10 k3, PS)	12%
CATTTTGCCCTTAGCT (sugars k3 d10 k3, PS)	54%
CCAAAGACCTCGACAC (sugars k3 d10 k3, PS)	13%
CCAAATTGCACTCGCT (sugars k3 d10 k3, PS)	36%
CCAAGACAGCCACACG (sugars k3 d10 k3, PS)	10%
CCAATGGACATCTCTT (sugars k3 d10 k3, PS)	40%
CCACACACTACCATAT (sugars k3 d10 k3, PS)	17%
CCACAGGAACAAGTCC (sugars k3 d10 k3, PS)	-5%
CCACCAATCCCAACCG (sugars k3 d10 k3, PS)	26%
CCACGAACTGCTGCTT (sugars k3 d10 k3, PS)	54%
CCACTGGTGAATTCAA (sugars k3 d10 k3, PS)	55%
CCACTTACTGGTTTAA (sugars k3 d10 k3, PS)	33%
CCAGCAAAATGTACTC (sugars k3 d10 k3, PS)	46%
CCAGCATTACAGTTCT (sugars k3 d10 k3, PS)	42%
CCAGGATTAATGTAGT (sugars k3 d10 k3, PS)	71% and 55%

Sequence	target mRNA inhibition
CCAGTAGGCCAGACCA (sugars k3 d10 k3, PS)	13%
CCATCATACTGCCAGG (sugars k3 d10 k3, PS)	17%
CCATGGTTGTCCTACT (sugars k3 d10 k3, PS)	10%
CCCAACTGCTTGCAGT (sugars k3 d10 k3, PS)	9%
CCCAAGATTGCCCCAA (sugars k3 d10 k3, PS)	-7%
CCCAATGGAGGTATGA (sugars k3 d10 k3, PS)	23%
CCCCAACTAAACATAC (sugars k3 d10 k3, PS)	26%
CCCCCAACTGCTTGCA (sugars k3 d10 k3, PS)	29%
CCCCCCAAGATTGCCC (sugars k3 d10 k3, PS)	14%
CCCCCGGAACTTTTAA (sugars k3 d10 k3, PS)	-12%
CCCCGGAACTTTTAAA (sugars k3 d10 k3, PS)	23%
CCCGCCTCAGTTACAC (sugars k3 d10 k3, PS)	4%
CCCTACTGAAGAGCAT (sugars k3 d10 k3, PS)	13%
CCCTGTTAAGACCATC (sugars k3 d10 k3, PS)	21%
CCCTTTACACCTCAGT (sugars k3 d10 k3, PS)	25%
CCGACCTCACGGATTT (sugars k3 d10 k3, PS)	39%
CCGCACAGCTCGGGCG (sugars k3 d10 k3, PS)	14%
CCGCCGCCTTTGTGAG (sugars k3 d10 k3, PS)	25%
CCGGAACTTTTAAAAT (sugars k3 d10 k3, PS)	13%
CCGTAACAGGCCACTG (sugars k3 d10 k3, PS)	30%
CCGTTGGCTGCCAGTG (sugars k3 d10 k3, PS)	6%
CCTAACATGCAATACT (sugars k3 d10 k3, PS)	12%
CCTAGCTTCACCACCA (sugars k3 d10 k3, PS)	33%

Sequence	target mRNA inhibition
CCTATCTTCACCACGA (sugars k3 d10 k3, PS)	6%
CCTGAAGTCAAGACAA (sugars k3 d10 k3, PS)	0%
CCTGCGACTTGCTCCC (sugars k3 d10 k3, PS)	20%
CCTGTGGTGGTCTGAT (sugars k3 d10 k3, PS)	54%
CCTTATTTAGAGGGCC (sugars k3 d10 k3, PS)	33%
CCTTCGGTGCCTTTAG (sugars k3 d10 k3, PS)	12%
CCTTTACACCTCAGTA (sugars k3 d10 k3, PS)	13%
CCTTTTAAAGTAGACC (sugars k3 d10 k3, PS)	-22%
CCTTTTCTAACATAGT (sugars k3 d10 k3, PS)	23%
CGAAGACACAGAGACC (sugars k3 d10 k3, PS)	10%
CGAGTTCAAGTGGCCT (sugars k3 d10 k3, PS)	18%
CGCAATTCTCCCTGCG (sugars k3 d10 k3, PS)	23%
CGCACTGGCTCCTGGA (sugars k3 d10 k3, PS)	49%
CGCCAACACAGTTTGC (sugars k3 d10 k3, PS)	12%
CGCCTGCTACCTTCAT (sugars k3 d10 k3, PS)	30%
CGCTTTCCCTGTGGCC (sugars k3 d10 k3, PS)	-2%
CGGAAATTTTTCTACC (sugars k3 d10 k3, PS)	8%
CGGAATTCGATCACCT (sugars k3 d10 k3, PS)	19%
CGGGATCAGAACAGTA (sugars k3 d10 k3, PS)	24%
CGTATTTATAGACGGA (sugars k3 d10 k3, PS)	-9%
CGTCATGGATTTCAAG (sugars k3 d10 k3, PS)	40%
CGTGTGGTTGCCAAGC (sugars k3 d10 k3, PS)	45%
CTAAACAATTACCTAA (sugars k3 d10 k3, PS)	3%

Sequence	target mRNA inhibition
CTAAAGGCTTCAGTCC (sugars k3 d10 k3, PS)	23%
CTAAATCATTGGGAGT (sugars k3 d10 k3, PS)	48%
CTAACATAGTTCAACC (sugars k3 d10 k3, PS)	16%
CTAACTTCTGCACCAC (sugars k3 d10 k3, PS)	38%
CTACTCCAAGCATTGG (sugars k3 d10 k3, PS)	27%
CTACTGGCTGCATCGA (sugars k3 d10 k3, PS)	54%
CTATAGCATCTGTGGA (sugars k3 d10 k3, PS)	29%
CTATATAAGGTCAATA (sugars k3 d10 k3, PS)	16%
CTATATTTAAGGCCTT (sugars k3 d10 k3, PS)	26%
CTATCTTCTATACTTC (sugars k3 d10 k3, PS)	24%
CTATTGGTATTAATTC (sugars k3 d10 k3, PS)	7%
CTCAATCCACTTGATC (sugars k3 d10 k3, PS)	32%
CTCACAAAACCCCCGG (sugars k3 d10 k3, PS)	18%
CTCAGTTACACATCCA (sugars k3 d10 k3, PS)	70% and 94%
CTCCATGGTTGTCCTA (sugars k3 d10 k3, PS)	39%
CTCCCCCAACTGCTTG (sugars k3 d10 k3, PS)	22%
CTCTGATCATAATCTC (sugars k3 d10 k3, PS)	35%
CTCTGCATCTAGGCCA (sugars k3 d10 k3, PS)	40%
CTGACTTTGTATGTAA (sugars k3 d10 k3, PS)	51%
CTGAGGCAAACGAAAC (sugars k3 d10 k3, PS)	-6%
CTGAGTGAAGTGTACT (sugars k3 d10 k3, PS)	48%
CTGATAAACTCACTGC (sugars k3 d10 k3, PS)	48%
CTGATAACGAAGAGAT (sugars k3 d10 k3, PS)	-3%

Sequence	target mRNA inhibition
CTGATTATCCTGATAT (sugars k3 d10 k3, PS)	33%
CTGCAATCATAAACTA (sugars k3 d10 k3, PS)	10%
CTGCACTGTGCTGTAC (sugars k3 d10 k3, PS)	-5%
CTGCAGAGTTTGAGTG (sugars k3 d10 k3, PS)	-19%
CTGCAGGCTATTACCT (sugars k3 d10 k3, PS)	-6%
CTGGGTCAGCTGTCAA (sugars k3 d10 k3, PS)	33%
CTGGTACACCCAGTGG (sugars k3 d10 k3, PS)	4%
CTGGTTAGGTATGAGC (sugars k3 d10 k3, PS)	3%
CTGTTTAAGTCACCTT (sugars k3 d10 k3, PS)	76% and 61%
CTTAAAGCACTTCTTG (sugars k3 d10 k3, PS)	-34%
CTTAGTTGGCATCAAG (sugars k3 d10 k3, PS)	31%
CTTATCTGCGGTTTCC (sugars k3 d10 k3, PS)	62% and 53%
CTTATCTGTTAACAGC (sugars k3 d10 k3, PS)	43%
CTTATGGAACTTGAAT (sugars k3 d10 k3, PS)	-5%
CTTCAACATTTGGCCT (sugars k3 d10 k3, PS)	18%
CTTCTCTAACCCAGTT (sugars k3 d10 k3, PS)	15%
CTTCTGATAACGAAGA (sugars k3 d10 k3, PS)	-5%
CTTCTGCACCACCAGA (sugars k3 d10 k3, PS)	13%
CTTGTCTTAGCTTGTT (sugars k3 d10 k3, PS)	71% and 61%
CTTGTGTTCTCTTGAG (sugars k3 d10 k3, PS)	13%
CTTTAAGCTGTTTAAG (sugars k3 d10 k3, PS)	-4%
CTTTACACCTCAGTAC (sugars k3 d10 k3, PS)	38%
